The values below are quoted from earlier work in US12042566B2, “Formulations of homotaurines and salts thereof” (Confluence Pharmaceuticals, LLC, priority 2017, dated 2024).

The conditions of data set [1]: humans, reportedly.
The conditions of data set [2]: high solubility and low passive permeability.

Turning to `CC(=O)NCCCS(=O)(=O)O` [acamprosate, 3-(Acetylamino)propylsulfonic acid], the oral bioavailability result in data set [1] is reported as “about 11%”. The “Biopharmaceutics Classification System (BCS) class” value in data set [2] is given as “Class III”.
